Assay results as given in ChEMBL document CHEMBL1149483, “Identification of potent agonists of photoreceptor-specific nuclear receptor (NR2E3) and preparation of a radioligand” (Bioorg Med Chem Lett, 2006).
pEC50: −log10 of the molar value.

Experiments:
[1] = biological target: T1, Photoreceptor-specific nuclear receptor (Homo sapiens, UniProt Q9Y5X4); experiment: Agonist activity at NR2E3 by beta lactamase transactivation assay; format: functional
[2] = biological target: T1, Photoreceptor-specific nuclear receptor; experiment: Agonist activity at NR2E3 by luciferase NCOR release assay in CHO cells; format: functional, cell-based

T1 sequence (Q9Y5X4 whole entry): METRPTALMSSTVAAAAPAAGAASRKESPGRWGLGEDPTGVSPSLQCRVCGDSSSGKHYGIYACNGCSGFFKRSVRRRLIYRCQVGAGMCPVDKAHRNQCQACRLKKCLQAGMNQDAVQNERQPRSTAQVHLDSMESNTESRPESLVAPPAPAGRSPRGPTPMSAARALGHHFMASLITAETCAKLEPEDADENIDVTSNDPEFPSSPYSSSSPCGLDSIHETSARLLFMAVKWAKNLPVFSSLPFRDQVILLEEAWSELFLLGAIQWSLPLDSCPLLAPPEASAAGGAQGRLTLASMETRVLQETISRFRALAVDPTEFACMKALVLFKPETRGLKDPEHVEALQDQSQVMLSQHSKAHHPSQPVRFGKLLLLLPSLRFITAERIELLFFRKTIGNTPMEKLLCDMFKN

Row | Compound | pEC50 [1] | pEC50 [2]
1 | O=C(Nc1ccc2nc(-c3cc(Cl)cc(Cl)c3O)[nH]c2c1)c1ccccc1Cl | < 4.60 | 5.38
2 | O=C(Nc1ccc(-c2nc3cc(NC(=O)C4CCC4)ccc3[nH]2)cc1)c1ccccc1Cl | 5.88 | 6.01
3 | O=C(Nc1cccc(-c2nc3cc(NC(=O)c4ccccc4Cl)ccc3[nH]2)c1)c1ccccc1Cl | 5.00 | 5.39
4 | O=C(Nc1ccc(-c2nc3cc(NC(=O)c4ccccc4Cl)ccc3[nH]2)cc1)c1ccccc1 | 6.57 | 6.21
5 | O=C(Nc1ccc(-c2nc3cc(NC(=O)c4ccccc4Cl)ccc3[nH]2)cc1)c1ccccc1F | 6.57 | 6.77
6 | O=C(Nc1ccc(-c2nc3cc(NC(=O)C4(c5ccccc5)CC4)ccc3[nH]2)cc1)c1ccccc1Cl | < 4.60 | 6.43
7 | O=C(Nc1ccc2[nH]c(-c3ccc4c(c3)OCO4)nc2c1)c1ccccc1Cl | < 4.60 | 5.14
8 | O=C(Nc1ccc(-c2nc3cc(NC(=O)C4CC4(F)F)ccc3[nH]2)cc1)c1ccccc1Cl (stereo unspecified) | 5.68 | 5.52
9 | N#CC1(C(=O)Nc2ccc3[nH]c(-c4ccc(NC(=O)c5ccccc5Cl)cc4)nc3c2)CC1 | 4.77 | 5.00
10 | O=C(Nc1ccc2nc(-c3cnn(-c4ccc(F)cc4)c3)[nH]c2c1)c1ccccc1Cl | < 4.60 | 5.39

Continued, values first:

Row | pEC50 [1] | pEC50 [2] | Compound
11 | 5.50 | 5.88 | O=C(Nc1ccc(-c2nc3ccc(NC(=O)C4CCCC4)cc3[nH]2)cc1)c1ccccc1Cl
12 | 5.32 | 5.66 | O=C(Nc1ccc2nc(-c3ccc(NC(=O)c4cccnc4Cl)cc3)[nH]c2c1)c1ccccc1Cl
13 | 5.20 | 5.58 | CC(C)(C)C(=O)Nc1ccc2nc(-c3ccc(NC(=O)c4ccccc4Cl)cc3)[nH]c2c1
14 | 6.50 | 6.83 | CC(C)C(=O)Nc1ccc2nc(-c3ccc(NC(=O)c4ccccc4Cl)cc3)[nH]c2c1
15 | 5.60 | 5.54 | CC1(C(=O)Nc2ccc3nc(-c4ccc(NC(=O)c5ccccc5Cl)cc4)[nH]c3c2)CC1
16 | 6.85 | 7.46 | O=C(Nc1ccc(-c2nc3ccc(NC(=O)C4CC4)cc3[nH]2)cc1)c1ccccc1Cl
17 | 6.14 | 6.59 | O=C(Nc1ccc(-c2nc3cc(NC(=O)[C@@H]4C[C@H]4F)ccc3[nH]2)cc1)c1ccccc1Cl
18 | 6.59 | 6.48 | Cc1ccccc1C(=O)Nc1ccc(-c2nc3ccc(NC(=O)c4ccccc4Cl)cc3[nH]2)cc1
